# Results published in US20260224524A1, “A PHARMACEUTICAL COMPOSITION TARGETING MUTANT P53 AND HER2” (DR DOZO LABORATORIES, priority 2023, published 2026).
# Assays:
# [1] = tested on: Human Lung Cancer Cell Line A-549; assay: Growth inhibition (% control growth, LC50, TGI, GI50) A-549; assay type: cell-based
# Method: The therapeutic effect of SA1 (peak 5) and SA2 (peak 4) is evaluated against human lung cancer cell line A-549 by calculating the percentage growth inhibition, drug concentration of test compound needed to inhibit cell growth by 50% (GI50) values.
# The therapeutic effect of SACC is evaluated against human lung cancer cell line A-549 by calculating the percentage growth inhibition, drug concentration of test compound needed to inhibit cell growth by 50% (GI50) values.
# [2] = tested on: Human Breast Cancer Cell Line MDA-MB-231; assay: Growth inhibition (% control growth, LC50, TGI, GI50) MDA-MB-231; assay type: cell-based
# [3] = Human tumour xenograft MDA-MB-231 model, animal body weight; assay type: in vivo, mice; conditions: for Animal Body Weight: Group B, 2.5 mg/kg i.v. day 1, 5, 9
# Method: The therapeutic effect of SACC is evaluated against triple-negative breast cancer cell line MDA-MB-231 by analysing tumour volume and relative tumour volume. The study involved the use of six mice. These mice were administrated treatment according to the following Groups: […]
smiles,measurement,setting,value
"COc1cccc2c1C(=O)c1c(O)c3c(c(O)c1C2=O)C[C@@](O)(C(=O)CO)C[C@@H]3O[C@H]1C[C@H](N)[C@H](O)[C@H](C)O1 [ADR, Adriamycin]",% Control Growth,"[1]; A-549, 10 μg/ml, Average Values",−26.5%
same,% Control Growth,"[1]; A-549, 10 μg/ml, Experiment 1",−23.5%
same,% Control Growth,"[1]; A-549, 10 μg/ml, Experiment 2",−29.5%
same,% Control Growth,"[1]; A-549, 10 μg/ml, Experiment 3",−26.5%
same,% Control Growth,"[1]; A-549, 20 μg/ml, Average Values",−30.8%
same,% Control Growth,"[1]; A-549, 20 μg/ml, Experiment 1",−28.2%
same,% Control Growth,"[1]; A-549, 20 μg/ml, Experiment 2",−33.8%
same,% Control Growth,"[1]; A-549, 20 μg/ml, Experiment 3",−30.4%
same,% Control Growth,"[1]; A-549, 40 μg/ml, Average Values",−46.0%
same,% Control Growth,"[1]; A-549, 40 μg/ml, Experiment 1",−45.0%
same,% Control Growth,"[1]; A-549, 40 μg/ml, Experiment 2",−48.7%
same,% Control Growth,"[1]; A-549, 40 μg/ml, Experiment 3",−44.2%
same,% Control Growth,"[1]; A-549, 80 μg/ml, Average Values",−50.0%
same,% Control Growth,"[1]; A-549, 80 μg/ml, Experiment 1",−49.4%
same,% Control Growth,"[1]; A-549, 80 μg/ml, Experiment 2",−51.0%
same,% Control Growth,"[1]; A-549, 80 μg/ml, Experiment 3",−49.4%
same,% Control Growth,"[1]; A-549, 10^−4M, Average Values",−43.0%
same,% Control Growth,"[1]; A-549, 10^−4M, Experiment 1",36.5%
same,% Control Growth,"[1]; A-549, 10^−4M, Experiment 2",44.4%
same,% Control Growth,"[1]; A-549, 10^−4M, Experiment 3",−48.1%
same,% Control Growth,"[1]; A-549, 10^−5M, Average Values",−34.9%
same,% Control Growth,"[1]; A-549, 10^−5M, Experiment 1",−30.6%
same,% Control Growth,"[1]; A-549, 10^−5M, Experiment 2",−33.8%
same,% Control Growth,"[1]; A-549, 10^−5M, Experiment 3",−40.3%
same,% Control Growth,"[1]; A-549, 10^−6M, Average Values",−4.0%
same,% Control Growth,"[1]; A-549, 10^−6M, Experiment 1",10.2%
same,% Control Growth,"[1]; A-549, 10^−6M, Experiment 2",−11.3%
same,% Control Growth,"[1]; A-549, 10^−6M, Experiment 3",−11.0%
same,% Control Growth,"[1]; A-549, 10^−7M, Average Values",12.4%
same,% Control Growth,"[1]; A-549, 10^−7M, Experiment 1",53.2%
same,% Control Growth,"[1]; A-549, 10^−7M, Experiment 2",15.9%
same,% Control Growth,"[1]; A-549, 10^−7M, Experiment 3",−32.0%
same,TGI,"[1]; A-549, Molar drug concentrations calculated from graph",4.143 µg/mL
same,TGI,"[1]; A-549, calculated from graph",<10 µg/mL
same,GI50,"[1]; Homo sapiens, A549, A-549, calculated from graph",< 10 µg/mL
same,CC50,"[1]; Homo sapiens, A549, read-out: LC50, A-549, calculated from graph",72 µg/mL
same,GI50,"[1]; Homo sapiens, A549, A-549, Molar drug concentrations calculated from graph",1.2 µg/mL
same,% Control Growth,"[2]; 10 μg/ml, Experiment 2",−89.3%
same,% Control Growth,"[2]; 20 μg/ml, Experiment 1",−85.1%
same,% Control Growth,"[2]; 40 μg/ml, Experiment 1",−80.9%
same,% Control Growth,"[2]; 80 μg/ml, Experiment 3",−71.2%
same,Animal Body Weight,[3]; day 1,20.9 Grams
same,Animal Body Weight,[3]; day 5,19.9 Grams
same,Animal Body Weight,[3]; day 9,20.3 Grams
same,Animal Body Weight,[3]; day 12,20.1 Grams
same,Animal Body Weight,[3]; day 15,19.5 Grams
same,Animal Body Weight,[3]; day 18,20.4 Grams
same,Animal Body Weight,[3]; day 21,20.0 Grams
same,Animal Body Weight,[3]; day 25,20.2 Grams
same,Animal Body Weight,[3]; day 30,21.6 Grams
same,change in body weight (in words),[3]; average body weight over 30 days,minimal change in body weight
